BindingDB's records for PubMed 25825497 (Eli Lilly)

Legend:
[1] = target: Serine/threonine-protein kinase OSR1 (OXSR1) (Homo sapiens) (UniProt O95747); test: Inhibition of human OSR1 by discoverX kinome scan assay
[2] = target: Mitogen-activated protein kinase kinase kinase 7 (TAK1/MAP3K7) (Homo sapiens) (UniProt O43318); test: Inhibition of human TAK1 by discoverX kinome scan assay
[3] = target: Mitogen-activated protein kinase kinase kinase 12 (DLK/MAP3K12) (Homo sapiens) (UniProt Q12852); test: Inhibition of human DLK by discoverX kinome scan assay
Chain of Mitogen-activated protein kinase kinase kinase 12 (DLK/MAP3K12) (Homo sapiens) (Q12852 whole entry, looked up): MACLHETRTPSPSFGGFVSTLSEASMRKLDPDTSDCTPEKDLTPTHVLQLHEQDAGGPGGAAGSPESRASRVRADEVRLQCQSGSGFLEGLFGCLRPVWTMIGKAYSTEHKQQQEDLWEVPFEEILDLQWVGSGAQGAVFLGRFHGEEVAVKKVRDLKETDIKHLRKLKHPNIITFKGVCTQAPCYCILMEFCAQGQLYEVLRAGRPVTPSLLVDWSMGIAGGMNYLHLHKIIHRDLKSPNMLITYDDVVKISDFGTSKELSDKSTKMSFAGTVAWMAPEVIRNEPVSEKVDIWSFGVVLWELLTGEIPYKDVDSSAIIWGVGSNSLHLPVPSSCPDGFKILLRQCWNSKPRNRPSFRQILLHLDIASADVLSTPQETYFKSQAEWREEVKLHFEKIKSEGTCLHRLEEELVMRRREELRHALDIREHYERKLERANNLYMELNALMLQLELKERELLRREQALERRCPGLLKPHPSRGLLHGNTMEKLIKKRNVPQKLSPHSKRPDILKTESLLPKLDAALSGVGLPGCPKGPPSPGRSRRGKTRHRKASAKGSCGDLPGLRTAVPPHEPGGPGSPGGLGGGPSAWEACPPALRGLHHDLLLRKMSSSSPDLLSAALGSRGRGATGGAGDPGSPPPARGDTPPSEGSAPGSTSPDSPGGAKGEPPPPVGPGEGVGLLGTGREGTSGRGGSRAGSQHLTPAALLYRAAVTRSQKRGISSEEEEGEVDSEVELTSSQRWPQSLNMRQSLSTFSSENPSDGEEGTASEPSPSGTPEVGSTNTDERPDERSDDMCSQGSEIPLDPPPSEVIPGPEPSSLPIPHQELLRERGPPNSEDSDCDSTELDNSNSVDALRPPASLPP

[4] = target: Serine/threonine-protein kinase PRP4 homolog (PRPF4B) (Homo sapiens) (UniProt Q13523); test: Inhibition of human PRP4 by discoverX kinome scan assay
Chain of Serine/threonine-protein kinase PRP4 homolog (PRPF4B) (Homo sapiens) (Q13523 whole entry, looked up): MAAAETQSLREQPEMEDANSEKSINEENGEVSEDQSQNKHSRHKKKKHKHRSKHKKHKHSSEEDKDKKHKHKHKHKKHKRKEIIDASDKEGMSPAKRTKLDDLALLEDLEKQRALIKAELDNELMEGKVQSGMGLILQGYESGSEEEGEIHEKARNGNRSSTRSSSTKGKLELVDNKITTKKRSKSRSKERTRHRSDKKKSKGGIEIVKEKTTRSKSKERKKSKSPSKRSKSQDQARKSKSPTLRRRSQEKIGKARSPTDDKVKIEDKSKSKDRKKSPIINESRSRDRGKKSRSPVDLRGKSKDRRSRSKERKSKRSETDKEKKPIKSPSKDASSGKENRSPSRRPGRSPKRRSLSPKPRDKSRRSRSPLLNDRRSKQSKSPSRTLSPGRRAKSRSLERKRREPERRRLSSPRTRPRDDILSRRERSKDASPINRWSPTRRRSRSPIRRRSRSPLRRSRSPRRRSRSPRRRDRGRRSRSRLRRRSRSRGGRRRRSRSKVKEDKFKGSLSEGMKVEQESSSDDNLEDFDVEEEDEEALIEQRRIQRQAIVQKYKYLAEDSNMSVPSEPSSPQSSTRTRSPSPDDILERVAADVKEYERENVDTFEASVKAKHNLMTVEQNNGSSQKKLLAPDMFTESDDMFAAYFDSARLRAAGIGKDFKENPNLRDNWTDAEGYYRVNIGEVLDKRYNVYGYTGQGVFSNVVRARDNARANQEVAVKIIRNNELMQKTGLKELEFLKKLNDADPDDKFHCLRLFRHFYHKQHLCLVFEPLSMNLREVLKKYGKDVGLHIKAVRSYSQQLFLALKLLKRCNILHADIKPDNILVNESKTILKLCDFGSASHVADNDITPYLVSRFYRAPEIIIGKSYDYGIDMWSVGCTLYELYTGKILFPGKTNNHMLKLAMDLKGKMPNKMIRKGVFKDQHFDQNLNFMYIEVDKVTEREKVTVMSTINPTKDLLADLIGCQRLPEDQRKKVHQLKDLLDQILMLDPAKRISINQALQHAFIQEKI

Measured: IC50

Chain of Serine/threonine-protein kinase OSR1 (OXSR1) (Homo sapiens) (O95747 whole entry, looked up): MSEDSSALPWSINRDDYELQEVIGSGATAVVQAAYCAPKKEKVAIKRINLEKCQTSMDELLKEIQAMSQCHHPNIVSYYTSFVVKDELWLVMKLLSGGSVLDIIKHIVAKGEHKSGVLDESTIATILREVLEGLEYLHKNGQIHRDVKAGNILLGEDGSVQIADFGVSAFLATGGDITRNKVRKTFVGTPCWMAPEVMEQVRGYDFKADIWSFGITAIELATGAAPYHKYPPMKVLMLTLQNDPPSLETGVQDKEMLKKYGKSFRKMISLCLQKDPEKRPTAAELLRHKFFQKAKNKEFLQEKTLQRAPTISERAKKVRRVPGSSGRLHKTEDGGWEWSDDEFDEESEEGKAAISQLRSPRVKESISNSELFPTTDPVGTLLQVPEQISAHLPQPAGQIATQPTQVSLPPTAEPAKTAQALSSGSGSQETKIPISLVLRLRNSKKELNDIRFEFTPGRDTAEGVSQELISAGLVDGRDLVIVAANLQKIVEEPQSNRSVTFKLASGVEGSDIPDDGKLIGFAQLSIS
Chain of Mitogen-activated protein kinase kinase kinase 7 (TAK1/MAP3K7) (Homo sapiens) (O43318 whole entry, looked up): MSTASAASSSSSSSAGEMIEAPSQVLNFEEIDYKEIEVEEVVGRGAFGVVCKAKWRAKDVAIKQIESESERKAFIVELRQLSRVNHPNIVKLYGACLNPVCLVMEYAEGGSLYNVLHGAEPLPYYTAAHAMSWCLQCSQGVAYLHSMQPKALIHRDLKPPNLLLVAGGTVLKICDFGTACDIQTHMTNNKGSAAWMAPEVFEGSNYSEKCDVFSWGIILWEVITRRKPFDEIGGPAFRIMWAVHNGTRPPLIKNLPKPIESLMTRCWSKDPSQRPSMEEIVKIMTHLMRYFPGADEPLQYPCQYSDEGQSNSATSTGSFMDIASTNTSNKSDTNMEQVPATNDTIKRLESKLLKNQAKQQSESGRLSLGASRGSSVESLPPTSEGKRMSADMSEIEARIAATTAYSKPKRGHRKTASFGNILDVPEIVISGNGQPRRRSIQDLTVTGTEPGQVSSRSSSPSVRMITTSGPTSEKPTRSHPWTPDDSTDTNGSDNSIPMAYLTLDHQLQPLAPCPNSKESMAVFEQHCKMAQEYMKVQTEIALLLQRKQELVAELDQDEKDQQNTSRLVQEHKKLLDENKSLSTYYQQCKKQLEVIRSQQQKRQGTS

Cc1cn(CCN2CCN(c3ccccc3-c3cc(C#N)cc(C(=O)NCCCN4CCCC4)c3)CC2)c2ccccc12
> 20 µM: all assays above
